Data as given in US12077503B2, “Substituted cyclic amides and their use as herbicides” (FMC CORPORATION, priority 2015, dated 2024).

Experiments:
Format in all cases: in vivo
[1] = tested on: pigweed (Amaranthus retroflexus); assay: Test A preemergence; conditions: Amaranthus retroflexus, pre-emergence, 240 h, Preemergence
[2] = tested on: ryegrass, Italian (Italian ryegrass, Lolium multiflorum); assay: Test A preemergence; conditions: Lolium multiflorum, pre-emergence, 240 h, Preemergence
How it was run: (§1)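 Seeded soil received test chemicals as a preemergence directed spray, and seedlings at one to two leaves, 2–10 cm tall, received them postemergence, in a non-phytotoxic, surfactant-containing solvent mixture. Pots were held in a greenhouse for approximately 10 d, then rated for injury from 0, no effect, to 100, complete control.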

Kochia (Kochia scoparia) [3] = assay: Test A preemergence; conditions: Bassia scoparia, pre-emergence, 240 h, Preemergence
How it was run: as §1

[4] = tested on: ragweed (common ragweed, Ambrosia elatior); assay: Test A preemergence; conditions: Ambrosia artemisiifolia, pre-emergence, 240 h, Preemergence
How it was run: as §1

[5] = tested on: barnyardgrass (Echinochloa crus-galli); assay: Test A preemergence; conditions: Echinochloa crus-galli, pre-emergence, 240 h, Preemergence
How it was run: as §1

[6] = tested on: giant foxtail (Setaria faberii); assay: Test A preemergence; conditions: Setaria faberi, pre-emergence, 240 h, Preemergence
How it was run: as §1

rice (Oryra sativa) = assay: Test B flooded paddy test; conditions: Oryza sativa, Flood, 250 g ai/ha; scale of 0 to 100 where 0 is no effect and 100 is complete control; read-out: Rice plant response rating
How it was run: (§2)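 Flooding to 3 cm over soil accompanied treatment, which consisted of adding compound to the standing water around 2-leaf plants; depth was then maintained. Visual assessment versus controls followed at 13 to 15 d (scale 0–100, 0 meaning no effect).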

[7] = tested on: sedge, umbrella (small-flower umbrella sedge, Cyperus difformis); assay: Test B flooded paddy test; conditions: Cyperus difformis, Flood, 250 g ai/ha; scale of 0 to 100 where 0 is no effect and 100 is complete control; read-out: Sedge, Umbrella plant response rating
How it was run: as §2

[8] = tested on: barnyardgrass (Echinochloa crus-galli); assay: Test B flooded paddy test; conditions: Echinochloa crus-galli, Flood, 250 g ai/ha; scale of 0 to 100 where 0 is no effect and 100 is complete control; read-out: Barnyardgrass plant response rating
How it was run: as §2

[9] = tested on: ducksalad (Heteranthera limosa); assay: Test B flooded paddy test; conditions: Heteranthera limosa, Flood, 250 g ai/ha; scale of 0 to 100 where 0 is no effect and 100 is complete control; read-out: Ducksalad plant response rating
How it was run: as §2

[10] = tested on: pigweed (Amaranthus retroflexus); assay: Test A postemergence; conditions: Amaranthus retroflexus, post-emergence, 240 h, Postemergence, read-out: Plant response rating, Pigweed
How it was run: as §1

[11] = tested on: ryegrass, Italian (Italian ryegrass, Lolium multiflorum); assay: Test A postemergence; conditions: Lolium multiflorum, post-emergence, 240 h, Postemergence, read-out: Plant response rating, Ryegrass, Italian
How it was run: as §1

corn (Zea mays) = assay: Test A postemergence; conditions: Zea mays, post-emergence, 240 h, Postemergence
How it was run: as §1

Kochia (Kochia scoparia) [12] = assay: Test A postemergence; conditions: Bassia scoparia, post-emergence, 240 h, Postemergence, read-out: Plant response rating, Kochia
How it was run: as §1

[13] = tested on: wheat (Triticum aestivum); assay: Test A postemergence; conditions: Triticum aestivum, post-emergence, 240 h, Postemergence, read-out: Plant response rating, Wheat
How it was run: as §1

[14] = tested on: ragweed (common ragweed, Ambrosia elatior); assay: Test A postemergence; conditions: Ambrosia artemisiifolia, post-emergence, 240 h, Postemergence, read-out: Plant response rating, Ragweed
How it was run: as §1

[15] = tested on: barnyardgrass (Echinochloa crus-galli); assay: Test A postemergence; conditions: Echinochloa crus-galli, post-emergence, 240 h, Postemergence, read-out: Plant response rating, Barnyardgrass
How it was run: as §1

[16] = tested on: Galium (catchweed bedstraw, Galium aparine); assay: Test A postemergence; conditions: Galium, post-emergence, 240 h, Postemergence, read-out: Plant response rating, Galium
How it was run: as §1

[17] = tested on: blackgrass (Alopecurus myosuroides); assay: Test A postemergence; conditions: Alopecurus myosuroides, post-emergence, 240 h, Postemergence, read-out: Plant response rating, Blackgrass
How it was run: as §1

[18] = tested on: giant foxtail (Setaria faberii); assay: Test A postemergence; conditions: Setaria faberi, post-emergence, 240 h, Postemergence, read-out: Plant response rating, Foxtail, Giant
How it was run: as §1

[19] = 125 g ai/ha, visual injury after approximately 10 d, 0 to 100 scale where 0 is no effect and 100 is complete control
[20] = 31 g ai/ha, visual injury after approx. 10 d, 0 to 100 scale, 0 no effect, 100 complete control

**Q.** Which results are given for `CC(C)Oc1cc([C@H]2CN(C)C(=O)[C@@H]2C(=O)Nc2cccc(F)c2F)cc(C(F)(F)F)c1` [Compound 972]?
**A.** pest or weed control at 125 g/ha ([1]; 125 g ai/ha, visual injury rating after approximately 10 d, read-out: Pigweed plant response rating (0 to 100 scale, 0 is no effect, 100 is complete control)): 0%; pest or weed control at 31 g/ha ([1]; 31 g ai/ha, 0 to 100 scale (0 no effect, 100 complete control), read-out: Plant response rating, Pigweed): 0%; pest or weed control at 125 g/ha ([2]; 125 g ai/ha, visual injury rating after approximately 10 d, read-out: Ryegrass, Italian plant response rating (0 to 100 scale, 0 is no effect, 100 is complete control)): 90%; pest or weed control at 31 g/ha ([2]; 31 g ai/ha, 0 to 100 scale (0 no effect, 100 complete control), read-out: Plant response rating, Ryegrass, Italian): 50%; pest or weed control at 125 g/ha (Kochia (Kochia scoparia) [3]; 125 g ai/ha, visual injury rating after approximately 10 d, read-out: Kochia plant response rating (0 to 100 scale, 0 is no effect, 100 is complete control)): 0%; pest or weed control at 31 g/ha (Kochia (Kochia scoparia) [3]; 31 g ai/ha, 0 to 100 scale (0 no effect, 100 complete control), read-out: Plant response rating, Kochia): 0%; pest or weed control at 125 g/ha ([4]; 125 g ai/ha, visual injury rating after approximately 10 d, read-out: Ragweed plant response rating (0 to 100 scale, 0 is no effect, 100 is complete control)): 20%; pest or weed control at 31 g/ha ([4]; 31 g ai/ha, 0 to 100 scale (0 no effect, 100 complete control), read-out: Plant response rating, Ragweed): 0%; pest or weed control at 125 g/ha ([5]; 125 g ai/ha, visual injury rating after approximately 10 d, read-out: Barnyardgrass plant response rating (0 to 100 scale, 0 is no effect, 100 is complete control)): 80%; pest or weed control at 31 g/ha ([5]; 31 g ai/ha, 0 to 100 scale (0 no effect, 100 complete control), read-out: Plant response rating, Barnyardgrass): 70%; pest or weed control at 125 g/ha ([6]; 125 g ai/ha, visual injury rating after approximately 10 d, read-out: Foxtail, Giant plant response rating (0 to 100 scale, 0 is no effect, 100 is complete control)): 80%; pest or weed control at 31 g/ha ([6]; 31 g ai/ha, 0 to 100 scale (0 no effect, 100 complete control), read-out: Plant response rating, Foxtail, Giant): 80%; pest or weed control at 250 g/ha (rice (Oryra sativa)): 50%; pest or weed control at 250 g/ha [7]: 0%; pest or weed control at 250 g/ha [8]: 80%; pest or weed control at 250 g/ha [9]: 85%; pest or weed control at 125 g/ha [10, 19]: 30%; pest or weed control at 31 g/ha [10, 20]: 20%; pest or weed control at 125 g/ha [11, 19]: 20%; pest or weed control at 31 g/ha [11, 20]: 0%; Corn plant response rating (crop injury, 0 = no effect, 100 = complete kill) at 125 g/ha (corn (Zea mays); [19]): 60%; Corn plant response rating (crop injury, 0 = no effect, 100 = complete kill) at 31 g/ha (corn (Zea mays); [20]): 20%; pest or weed control at 125 g/ha (Kochia (Kochia scoparia) [12]; [19]): 0%; pest or weed control at 31 g/ha (Kochia (Kochia scoparia) [12]; [20]): 0%; plant injury at 125 g/ha [13, 19]: 40%; plant injury at 31 g/ha [13, 20]: 20%; pest or weed control at 125 g/ha [14, 19]: 30%; pest or weed control at 31 g/ha [14, 20]: 0%; pest or weed control at 125 g/ha [15, 19]: 50%; pest or weed control at 31 g/ha [15, 20]: 50%; pest or weed control at 125 g/ha [16, 19]: 30%; pest or weed control at 31 g/ha [16, 20]: 0%; pest or weed control at 125 g/ha [17, 19]: 0%; pest or weed control at 31 g/ha [17, 20]: 0%; pest or weed control at 125 g/ha [18, 19]: 60%; pest or weed control at 31 g/ha [18, 20]: 30%
